Results as given in patent publication US20130281638A1, “TRICYCLO COMPOUND-POLYMER CONJUGATE” (SUCAMPO AG, priority 2012, published 2013).

Key:
[1] = cited from earlier work
[2] = Incorporation of Tacrolimus into MPEG-hexPLA polymer micelles; format: physicochemical; details: loadings up to 300 mg Tacrolimus per gram MPEGhexPLA; aqueous micelle solution, acetone/water sonication protocol
Description: Objective is the evaluation of the methoxypoly(ethylene glycol)-hexyl-substituted poly(lactic acid) [MPEG-hexPLA] polymer micelles' potential to incorporate and solubilize Tacrolimus.
The incorporation studies were carried out by a standard formulation protocol. Briefly, a defined amount of Tacrolimus was dissolved in acetone and added dropwise under sonication into water, followed by evaporation of the organic solvent and equilibration of the micelle solution overnight.
As it can be seen, for loadings up to 300 mg Tacrolimus per gram MPEGhexPLA, loading efficiencies higher than 70% could be obtained by this simple procedure. FIG. 2 presents the corresponding concentrations of Tacrolimus in the aqueous solution. It has to be noted, that these solutions can be further concentrated by simple evaporation to obtain higher drug concentrations, and keeping the transparency of the solutions.

[3] = Storage stability of Tacrolimus MPEG-hexPLA micelle formulations at 4° C.; format: physicochemical; details: stored at 4° C.
From the text: The non-incorporated active compound can be removed by a simple filtration.

- loading efficiencies [2]: higher than 70%
- stability on storage ([3]; formulation with a target of 150 mg/g): best stable formulation
- stability on storage (precipitation) ([3]; higher (than 150 mg/g target) and possibly oversaturated formulations): slight drug precipitation
Compound: C=CCC1/C=C(\C)CC(C)CC(OC)C2OC(O)(C(=O)C(=O)N3CCCCC3C(=O)OC(/C(C)=C/C3CCC(O)C(OC)C3)C(C)C(O)CC1=O)C(C)CC2OC (stereo not shown) [Tacrolimus, 17-allyl-1,14-dihydroxy-12-[2-(4-hydroxy-3-methoxycyclohexyl)-1-methylvinyl]-23,25-dimethoxy-13,19,21,27-tetramethyl-11,28-dioxa-4-azatricyclo[22.3.1.0^4,9]octacos-18-ene-2,3,10,16-tetraone]
- water solubility [1]: poorly water-soluble
